pIC50, pKi: −log10 of the molar value.

A word on the pIC50: it is the negative decadic logarithm of the IC50, by convention in mol/L. The low end stands for a large IC50, the high end for a small IC50.

The target of one assay is T1, gelatinase MMP-2 (Homo sapiens, UniProt P08253).
T1 sequence (P08253 110-660): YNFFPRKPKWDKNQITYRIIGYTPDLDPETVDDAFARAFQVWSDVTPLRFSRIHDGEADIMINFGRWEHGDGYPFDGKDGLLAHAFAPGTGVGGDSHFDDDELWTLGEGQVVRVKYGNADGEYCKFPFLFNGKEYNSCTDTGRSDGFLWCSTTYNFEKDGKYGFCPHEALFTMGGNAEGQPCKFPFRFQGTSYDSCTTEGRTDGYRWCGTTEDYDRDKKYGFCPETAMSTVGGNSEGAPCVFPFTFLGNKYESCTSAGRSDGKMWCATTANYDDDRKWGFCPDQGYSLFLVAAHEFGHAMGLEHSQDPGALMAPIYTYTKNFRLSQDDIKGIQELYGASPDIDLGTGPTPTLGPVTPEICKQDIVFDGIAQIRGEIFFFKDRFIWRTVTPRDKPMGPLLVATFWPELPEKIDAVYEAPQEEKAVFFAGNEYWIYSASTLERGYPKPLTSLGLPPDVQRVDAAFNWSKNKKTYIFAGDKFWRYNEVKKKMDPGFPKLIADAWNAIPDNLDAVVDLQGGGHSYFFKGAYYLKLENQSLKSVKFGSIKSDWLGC
The assay is described as follows: Inhibition of gelatinase MMP-2 by hydroxamic acids. The class given is biochemical. The settings on record: for pKi: Ki = IC50/(1 + [S]/Km), read-out: Apparent Ki gelatinase MMP-2.

Assay [1] has as its system ADAMTS-4/ADAMTS-5 (aggrecanase). Kind of assay: Inhibition of aggrecan cleavage at Glu1480-Gly1481 by recombinant ADAMTS-4/ADAMTS-5 (Western blot, densitometry). The class given is biochemical, Human. The conditions noted are these: aggrecan 500 nM, enzyme 5 nM, 2 hours, 37° C.; Ki = IC50/(1 + [S]/Km); read-out: Apparent Ki aggrecanase ADAM-TS4/5. The protocol: A series of newly synthesized hydroxamic acids (FIG. 1) were tested for their ability to inhibit recombinant ADAMTS-4/ADAM-TS5 as well a several matrix metalloproteinases (MMPs). In this study aggrecan, at a concentration of 500 nM, was incubated for 2 hours at 37° C. with 5 nM of either ADAMTS-4/ADAM-TS5 in the presence or absence of one of the hydroxamic acids at a concentration range from 0.1 to 1000 nM. Subsequently, the fractions were analysed for cleavage of aggrecan at the Glu^1480-^1481Gly site by Western Blot analysis, using a specific antibody recognizing the new C-terminus GELE^1480. Inhibition of cleavage was determined by scanning densitometry and the Ki values were determined (Table 1).
Digestions were carried out in 100 μl of 50 mM Tris/HCl buffer, pH 7.5, containing 100 mM NaCl and 10 mM CaCl2. Human recombinant ADAMTS-4/ADAMTS-5 were prepared as described (1, 2). Purified bovine aggrecan (12) (500 nM) was incubated with 5 nM ADAMTS-4/ADAMTS-5 at 37° C. for 2 hours, in the absence or presence of each of the hydroxamates described above, at concentrations ranging from […]. Following the incubation, cleavage of aggrecan at the Glu^1480-^1481Gly bond was monitored by Western Blot analysis, using the neoepitope antibody that recognizes the new C-terminus GELE^1480, as previously described (12).

The target in the next assay is T2, Collagenase MMP-1 (Homo sapiens, UniProt P03956).
T2 sequence (P03956 100-469): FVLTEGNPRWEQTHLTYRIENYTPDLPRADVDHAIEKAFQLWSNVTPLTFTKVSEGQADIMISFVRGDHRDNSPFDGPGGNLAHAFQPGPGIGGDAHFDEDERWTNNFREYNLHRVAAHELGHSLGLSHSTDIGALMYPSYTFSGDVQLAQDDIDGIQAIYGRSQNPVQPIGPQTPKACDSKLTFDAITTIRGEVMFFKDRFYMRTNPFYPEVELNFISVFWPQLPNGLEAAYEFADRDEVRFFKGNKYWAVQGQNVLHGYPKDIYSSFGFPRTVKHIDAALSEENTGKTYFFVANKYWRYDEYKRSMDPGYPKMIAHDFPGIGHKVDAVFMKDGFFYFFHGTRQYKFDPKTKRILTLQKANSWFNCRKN
The assay is described as follows: Inhibition of collagenase MMP-1 by hydroxamic acids. The format is biochemical. The settings on record: for pKi: Ki = IC50/(1 + [S]/Km), read-out: Apparent Ki Collagenase MMP-1.

Assay [2] has as its system Human OA cartilage explants. Kind of assay: Aggrecanase-generated aggrecan fragment release from human osteoarthritic cartilage explants. The format is cell-based. The settings on record: 0.1 to 10 μM, 48 hours. The protocol: (§1) The same compounds were tested for the ability to block aggrecan cleavage in an in vitro model of cartilage degradation. Pig articular cartilage explants were cultured for 72 hours in the presence of IL-α, with or without one of the inhibitors at a concentration range og 0.1 to 10 μM. Culture media were assessed for the level of glycosaminoglycan chains (GAG) by dimethyl methylene blue (DMMB) assay, as a measure of aggrecan breakdown and IC50 values were calculated (Table 1). […] Therefore, we tested JWD40 for its ability to prevent aggrecan degradation in osteoarthritic (OA) cartilage. Human OA cartilage explants were cultured with or without JWD40, 0.1 to 10 μM. After 48 hours, media were analyzed for the presence of aggrecan products generated by cleavage by aggrecanase, containing the new N-terminus ^374ARGSV.
Articular cartilage was dissected from the hips of patients with osteoarthritis at the time of joint replacement. Cartilage was allowed to equilibrate for 3 days in DMEM supplemented with penicillin (100 U/ml) and streptomycin (100 μg/ml). […] At the end of the culture period, the media were analyzed for aggrecan fragments generated by cleavage of aggrecan by aggrecanase, using a neoepitope that recognizes the new N-terminus […] (14).

In the next assay the target is stromelysin MMP-3 (Homo sapiens, UniProt P08254). The assay is described as follows: Inhibition of stromelysin MMP-3 by hydroxamic acids. The class given is biochemical. The conditions noted are these: for pKi: Ki = IC50/(1 + [S]/Km), read-out: Apparent Ki stromelysin MMP-3.
stromelysin MMP-3, sequence (P08254 100-477): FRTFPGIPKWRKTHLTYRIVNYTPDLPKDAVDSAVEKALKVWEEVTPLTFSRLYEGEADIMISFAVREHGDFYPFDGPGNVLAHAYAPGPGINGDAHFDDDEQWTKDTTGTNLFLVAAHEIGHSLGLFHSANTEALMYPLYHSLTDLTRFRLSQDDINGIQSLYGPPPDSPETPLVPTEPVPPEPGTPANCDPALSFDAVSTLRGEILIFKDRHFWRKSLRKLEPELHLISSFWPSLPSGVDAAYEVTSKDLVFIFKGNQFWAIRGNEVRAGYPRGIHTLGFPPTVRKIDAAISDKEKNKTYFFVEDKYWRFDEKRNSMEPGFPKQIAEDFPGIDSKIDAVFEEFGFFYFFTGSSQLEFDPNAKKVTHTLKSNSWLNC
Assay [3] has as its system Pig articular cartilage explants. The assay is described as follows: IL-1 induced aggrecan degradation in pig articular cartilage explants (GAG release, DMMB assay). The class given is cell-based. The conditions noted are these: 72 hours; for pIC50: Sus scrofa, pig explants, IL-1α, inhibitor 0.1 to 10 μM. On the procedure:
as §1
Articular cartilage was dissected from the knees of young pigs. Cartilage was allowed to equilibrate for 3 days in DMEM supplemented with 10% FCS, penicillin (100 U/ml) and streptomycin (100 μg/ml). Subsequently, cartilage was cut into 3×3 mm explants, weighing approximately 10-20 mg each, and incubated in 96-well plates for 72 hours with either control medium (serum-free DMEM),ml), IL-1α (100 ng/ml), or IL-1α (100 ng/ml) plus a series of hydroxamic acids at a concentration range of 0.1 μM to 10 μM. At the end of the culture period, glycosaminoglycan (GAG) levels in the culture media were determined by dimethylmethylene blue (DMMB) assay, as described by Farndale et al (13).

The next assay concerns aggrecanase-1 (ADAMTS4). The assay is described as follows: Protection of native aggrecan from cleavage by full length aggrecanase-1 (Western blot, MAB2035). The format is biochemical. The conditions noted are these: peptide 100 μM, ADAMTS4 5 nM, aggrecan 500 nM, 5 hours, 37° C. On the procedure:
An aggrecan binding peptide sequence derived from thrombospondin motif of aggrecanase-1 was tested for its ability to protect aggrecan from degradation by aggrecanase. Full length aggrecanase-1 (ADAMTS4), 5 nM, was incubated with native aggrecan, 500 nM, for 5 hours at 37° C. in the presence of the thrombospondin peptide GGWGPWGPWGDCSRTCGGG, 100 μM (Seq. No. 14). Aggrecan cleavage products were measured by Western blot analysis using the monoclonal antibody MAB2035.
For orientation: Immunoblotting shows a protein as a band on a membrane.

The mark [4] stands for this setting: compared with Ki against aggrecanase.

For the compound `CNC(=O)C(C)NC(=O)C(CC(=O)NO)CC(C)C` (stereo not shown) [JWD-52], the pKi at gelatinase MMP-2 is 7.23; in assay [1] it was 7.46; at Collagenase MMP-1, 7.12.
Take `CNC(=O)[C@@H](NC(=O)[C@@H](CC(=O)NO)CC(C)C)C(C)C` [JWD-40]: the “Release of aggrecanase-generated fragment with N-terminus 374ARGSV” value in assay [2] is “blocked the release of this fragment in a concentration-dependent manner”. In addition, the pKi is 7.44 at gelatinase MMP-2, 6.90 on stromelysin MMP-3, 7.77 in assay [1] and 7.59 on Collagenase MMP-1. Besides, on gelatinase MMP-2 (setting [4]), the “Potency against MMP-2 relative to aggrecanase” value is “twofold less potent”. In addition, the “Potency against MMP-3 relative to aggrecanase” value on stromelysin MMP-3 (setting [4]) is given as “a log less potency”. In addition, the “Potency against MMP-1 relative to aggrecanase” value on Collagenase MMP-1 (setting [4]) is given as “twofold less potent”. The pIC50 in assay [3] was 5.69. The “Protection against IL-1 induced aggrecan degradation” value in assay [3] (pig articular cartilage explants) was “very effective”.
In the case of `CNC(=O)C(CCc1ccccc1)NC(=O)C(CC(=O)NO)CC(C)C` (stereo not shown) [JWC-97], the pKi at gelatinase MMP-2 is 8.64; on stromelysin MMP-3 it was 6.87; in assay [1] it was 7.21; on Collagenase MMP-1 it was 8.13. In assay [3], this compound gave a pIC50 of 5.74.
For `CNC(=O)C(Cc1ccc(OCc2ccccc2)cc1)NC(=O)C(CC(=O)NO)CC(C)C` (stereo not shown) [JWC-100], in that order: more than 10.00, 9.05, 6.80, 9.00 and 5.22.
Regarding `CNC(=O)C(Cc1ccc(F)cc1)NC(=O)C(CC(=O)NO)CC(C)C` (stereo not shown) [JWC-95], the pKi on gelatinase MMP-2 was 8.64; on stromelysin MMP-3 it was 7.19; in assay [1], 7.01; on Collagenase MMP-1, 8.23. The same compound gave a pIC50 in assay [3] of 5.54.
`CNC(=O)C(Cc1ccccc1)NC(=O)C(CC(=O)O)CC(C)C` (stereo not shown) [JWD-18]: the pKi is less than 6.00 on gelatinase MMP-2, less than 6.00 on stromelysin MMP-3, less than 5.00 in assay [1] and 6.00 on Collagenase MMP-1. Besides, the pIC50 in assay [3] is less than 4.00.
GGWGPWGPWGDCSRTCGGG: in the assay with aggrecanase-1 (ADAMTS4), the “Protection of aggrecan from cleavage by aggrecanase” value is listed as “protects aggrecan from cleavage by aggrecanase”.

The record behind these values is patent publication US20030114529A1, “Hydroxamic acid thrombospondin peptide analog that inhibits aggrecanase activity” (priority 2001, published 2003).
